Measured values: US6939511B2, “Contact lens treating method and composition” (Novartis AG, priority 2000, dated 2005)

Test system: L929 mammalian fibroblasts
Assay: MEM (Minimum Essential Medium) USP elution in-vitro toxicity test
Assay type: cell-based
Excerpt: In testing the toxicity of compounds of the compositions disclosed in solution, an MEM test procedure is used. The MEM (Minimum Essential Medium) test procedure is employed to evaluate cytoxicity using standard USP (The United States Pharmacopeial Convention) elution assays. A description of the test procedure is provided herein.
The assay provides a means of evaluating extracts of polymeric materials under direct contact conditions. This method is appropriate for high-density materials and for dose-response evaluations.
All reagents should be tissue culture grade or equivalent and should be reconstituted in accordance with manufacturer's instructions using aseptic technique.
Media Preparation: 1× MEM media is prepared by mixing 100 mL Eagle's MEM (with Earl's Salts and Sodium Bicarbonate, without L-glutamine), with 10 mL serum, 1 mL-glutamine solution, and 0.5 mL antibiotic solution (L-glutamine and antibiotic solutions are purchased at correct concentrations and stored frozen at −20° C.±2). Eagle's MEM is a sterile minimum essential medium and is available from Mediatech Celigro. Media may be stored up to 2 weeks at a temperature of 2° C.±2 after L-glutamine and antibiotics are added, or up to 1 month, if only serum is added. Preparation of 0.25% Trypsin: 10× Trypsin is placed in sterile 50 ml centrifuge tubes in 4 ml aliquots and stored frozen at −20° C.±2. Before use, a 4 ml aliquot of 10× trypsin is diluted 1:9 with 36 ml of Dulbecco's Phosphate Buffered Saline (PBS) to yield a 0.25% solution. Dulbecco's Saline is available from Mediatech Cellgro. Sterile 35 mm diameter petri dishes or 6 well tissue culture plates are used. Sterile serological pipets are employed in the procedure. Sterile absorbent material (e.g. Kay-Drys or similar material) is used. L929 mammalian fibroblasts (ATCC cell line CCL1, NCTC clone 929) are employed. […]
Exposure to Test Extracts: Exposure to test extracts is determined examining a representative prepared cell culture plate using the microscope to observe the cell monolayer for correct confluency. […]

SMILES: O.O.O.O.O.O.O=C([O-])c1ccccc1C(=O)O[O-].[Mg+2] [magnesium perphthalate, magnesium monoperoxyphthalate hexahydrate]
- cells dead (concentrations below 0.5%): 2-3%
- MEM Test Result level (concentrations below 0.5%, generally): 1 (Slight Not more than 20% of cells round and loosely attached—occasional lysed cells present)
- toxicity level MEM (concentrations of 0.5% and above, with and without saline): 4
